Here are results for 30 compounds from ChEMBL document CHEMBL1131862, “Synthesis and anti-HIV activity of arylpiperazinyl fluoroquinolones: a new class of anti-HIV agents” (Bioorg Med Chem Lett, 1999).

The subject of test [1] is Human immunodeficiency virus 1. As to the kind of experiment: Anti-HIV activity against HIV-1 IIIB chronically infected Molt-4 cells. As to conditions: Human immunodeficiency virus 1, MOLT-4; call rule not given here. The format is functional, organism-based.
Test [2] concerns Human immunodeficiency virus 1. Description: Cytotoxicity to HIV-1 IIIB chronically infected Molt-4 cells assayed using tetrazolium based colorimetric assay. The format is functional. To be noted: Human immunodeficiency virus 1, MOLT-4.
Test [3] deals with MOLT-4. As to the kind of experiment: Anti-HIV activity against HIV-1 IIIB chronically infected Molt-4 cells; Not active. The format is functional, cell-based, Homo sapiens.

A word on the IC50: it is the midpoint of a concentration-inhibition curve. As a reminder, the CC50 is the concentration giving 50% cytotoxicity. Lower therefore signals greater toxicity to the cells.

SMILES strings stand for the structures. Some results are limits rather than exact numbers.

The compound `O=C(O)c1cn(C2CC2)c2c(OC(F)F)c(N3CCN(c4ccc(Cl)cc4)CC3)c(F)cc2c1=O` showed an IC50 in test [1] of 0.48 µM. The same compound yielded a CC50 in test [2] of 5.8 µM.
In turn, `COc1ccccc1N1CCN(c2c(F)cc3c(=O)c(C(=O)O)cn(CCN(C)C)c3c2OC(F)F)CC1` registered an IC50 in test [1] of 5.6 µM. In test [2], this compound yielded a half-maximal cytotoxic concentration (CC50) of over 55 µM.
The corresponding values for `COc1ccccc1N1CCN(c2c(F)cc3c(=O)c(C(=O)O)cn(C4CC4)c3c2OC(F)F)CC1` are 0.11 µM and 9.9 µM.
The corresponding values for `COc1c(N2CCN(c3ccccn3)CC2)c(F)cc2c(=O)c(C(=O)O)cn(C3CC3)c12` are 1.8 µM and 26 µM.
In the case of `COc1ccccc1N1CCN(c2c(F)cc3c(=O)c(C(=O)O)cn(CCO)c3c2OC(F)F)CC1`, half-maximal inhibition in test [1] (IC50) required 0.26 µM. The cytotoxic concentration (CC50) in test [2] worked out at 26 µM.
For `CC(C)n1cc(C(=O)O)c(=O)c2cc(F)c(N3CCN(c4ncccn4)CC3)c(OC(F)F)c21` the same measures were 0.23 µM and 31 µM.
The corresponding values for `Cn1cc(C(=O)O)c(=O)c2cc(F)c(N3CCN(c4ncccn4)CC3)c(OC(F)F)c21` are 0.14 µM and 38 µM.
In the case of `CCn1cc(C(=O)O)c(=O)c2cc(F)c(N3CCN(c4ccccc4OC)CC3)c(OC(F)F)c21`, half-maximal inhibition in test [1] (IC50) was put at 0.094 µM. It took 13 µM to reach half-maximal cytotoxicity in test [2] (CC50).
The corresponding values for `CN1CCN(c2c(F)cc3c(=O)c(C(=O)O)cn(C4CC4)c3c2OC(F)F)CC1` are over 60 µM and over 60 µM.
The corresponding values for `COc1ccccc1N1CCN(c2c(F)cc3c(=O)c(C(=O)O)cn(CCOC(C)=O)c3c2OC(F)F)CC1` are 0.1 µM and 11 µM.
For `COc1ccccc1N1CCN(c2c(F)cc3c(=O)c(C(=O)O)cn(C(C)C)c3c2OC(F)F)CC1` the same measures were 0.1 µM and 8.9 µM.
Compound `CNn1cc(C(=O)O)c(=O)c2cc(F)c(N3CCN(c4ncccn4)CC3)c(OC(F)F)c21` came in with a half-maximal inhibitory concentration (IC50) in test [1] of 0.5 µM. Moreover, in test [2], the CC50 was over 60 µM.
For `O=C(O)c1cn(C2CC2)c2c(OC(F)F)c(N3CCN(c4ccccn4)CC3)c(F)cc2c1=O` the same measures were 0.25 µM and 15 µM.
`COc1ccccc1N1CCN(c2c(F)cc3c(=O)c(C(=O)O)cn(CCF)c3c2OC(F)F)CC1` yielded a 50% inhibitory concentration (IC50) in test [1] of 0.27 µM. Besides, in test [2], it took 22 µM to reach half-maximal cytotoxicity (CC50).
For `O=C(O)c1cn(C2CC2)c2c(F)c(N3CCN(c4ccccn4)CC3)c(F)cc2c1=O` the same measures were 50 µM and over 50 µM.
The corresponding values for `COc1ccccc1N1CCN(c2c(F)cc3c(=O)c(C(=O)O)cn(CC(=O)O)c3c2OC(F)F)CC1` are over 55 µM and over 55 µM.
`O=C(O)c1cn(CCF)c2c(OC(F)F)c(N3CCN(c4ncccn4)CC3)c(F)cc2c1=O` yielded an IC50 in test [1] of 0.93 µM. Moreover, in test [2], the CC50 was over 60 µM.
For `O=C(O)c1cn(CCO)c2c(OC(F)F)c(N3CCN(c4ncccn4)CC3)c(F)cc2c1=O` the same measures were 0.79 µM and over 60 µM.
The compound `O=C(O)c1cn(C2CC2)c2c(OC(F)F)c(N3CCNCC3)c(F)cc2c1=O` had an IC50 in test [1] of over 60 µM. The same compound gave a 50% cytotoxic concentration (CC50) in test [2] of over 60 µM.
`COc1ccccc1N1CCN(c2c(F)cc3c(=O)c(C(=O)O)cn(C)c3c2OC(F)F)CC1` showed a concentration for half-maximal inhibition (IC50) in test [1] of 0.14 µM. In test [2], this compound returned a cytotoxic concentration (CC50) of 13 µM.
The corresponding values for `CNn1cc(C(=O)O)c(=O)c2cc(F)c(N3CCN(c4ccccc4OC)CC3)c(OC(F)F)c21` are 0.35 µM and 19 µM.
On to `CCn1cc(C(=O)O)c(=O)c2cc(F)c(N3CCN(c4ncccn4)CC3)c(OC(F)F)c21`, for which half-maximal inhibition in test [1] (IC50) required 0.41 µM. This compound came in with a CC50 in test [2] of 28 µM.
The corresponding values for `COc1ccc(N2CCN(c3c(F)cc4c(=O)c(C(=O)O)cn(C5CC5)c4c3OC(F)F)CC2)cc1` are 0.6 µM and 17 µM.
`CC1COc2c(N3CCN(c4ccccn4)CC3)c(F)cc3c(=O)c(C(=O)O)cn1c23` (stereo not given) yielded an IC50 in test [1] of 3.7 µM. Moreover, in test [2], the CC50 stood at 39 µM.
In test [1], `O=C(O)c1cn(C2CC2)c2c(OC(F)F)c(N3CCN(c4ncccn4)CC3)c(F)cc2c1=O` showed a half-maximal inhibitory concentration (IC50) of 0.97 µM. Besides, in test [2], the cytotoxic concentration (CC50) was over 40 µM.
On to `COc1cccc(N2CCN(c3c(F)cc4c(=O)c(C(=O)O)cn(C5CC5)c4c3OC(F)F)CC2)c1`, for which, in test [1], the IC50 was 0.7 µM. The CC50 in test [2] turned out to be 22 µM.
`O=C(O)c1cn(C2CC2)c2c(OC(F)F)c(N3CCN(c4ccc(F)cc4)CC3)c(F)cc2c1=O`: in test [1], the midpoint of inhibition, the IC50, lay at 0.059 µM. In test [2], this compound displayed a CC50 of 5.7 µM.
`O=C(O)c1cn(C2CC2)c2c(OC(F)F)c(N3CCN(Cc4ccccc4)CC3)c(F)cc2c1=O`: in test [3], the half-inhibitory concentration (IC50) result is listed as “Not Active”. Moreover, half-maximal cytotoxicity in test [2] (CC50) was put at 23 µM.
As for `O=C(O)c1cn(C2CC2)c2c(OC(F)F)c(N3CCN(c4ccccc4)CC3)c(F)cc2c1=O`, in test [1], half-maximal inhibition (IC50) was put at 0.063 µM. Also, the 50% cytotoxic concentration (CC50) in test [2] was determined as 8.4 µM.
In test [1], `O=C(O)c1cn2c3c(c(N4CCN(c5ccccn5)CC4)c(F)cc3c1=O)OCC2CF` (stereo not given) displayed an IC50 of 1.7 µM. The same compound showed a CC50 in test [2] of over 60 µM.
